{"source": "patent US20250387419A1", "about": "“PARP INHIBITOR-RESISTANT PATIENT TREATED WITH TH-302” (ASCENTAWITS PHARMACEUTICALS, LTD., priority 2021, published 2025)", "key": {"[1]": {"assay": "Safety (body weight) in BL3325 PDX model", "format": "in vivo, mouse", "conditions": "Group 2: 50 mg/kg p.o. QD×30", "protocol": "(§1) Protocol: Nude female Balb/c mice were subcutaneously inoculated with HuPrime® bladder cancer BL3325 tumor tissue, establishing a human bladder cancer subcutaneous xenograft tumor model. The mice were divided into 6 groups, 6 in each group: 50 mg/kg of the test drug olaparib as a monotherapy (Group 02); 80 mg/kg TH-302 as a monotherapy (Group 03); 40 mg/kg TH-302 as a monotherapy (Group 04); 20 mg/kg TH-302 as a monotherapy (Group 05); 40 mg/kg TH-302 in combination therapy with 50 mg/kg olaparib (Group 06); and a glucose injection solution as a vehicle control (Group 01). The vehicle control group and the TH-302 treatment groups were all administered through tail vein, once weekly for a total of 3 weeks. Olaparib was intragastrically administered once daily for totally 30 days. Routes of administration, doses and regimens for the HuPrime® bladder cancer BL3325 animal model are specifically summarized in Table 20.\nTumor growth of the treatment and control groups on different days in the experiment were recorded and shown in Table 21, and corresponding tumor volume growth curves of the mice in respective groups are shown in FIG. 11. Efficacy evaluation was carried out based on relative tumor proliferation rates and relative tumor growth inhibition rates, and the results of efficacy analysis are summarized in Table 22. Body weight changes of the treatment and control groups after administration were recorded to investigate safety of the groups in the HuPrime® bladder cancer BL3325 subcutaneous model. Body weight change rates of the mice on Day 35 are shown in Table 23, and curves showing body weights of the treatment groups over time are plotted in FIG. 12."}, "[2]": {"assay": "Safety (body weight) in LU6429 PDX model", "format": "in vivo, mouse", "conditions": "Group 2: 50 mg/kg p.o. QD×28", "protocol": "as §1, with “HuPrime® lung” for “HuPrime® bladder”, “cancer LU6429” for “cancer BL3325”, “human lung” for “human bladder”, “totally 28” for “totally 30”, “Table 16.” for “Table 20.”\nTumor growth of the treatment and control groups on different days in the experiment were recorded and shown in Table 17, and corresponding tumor volume growth curves of the mice in respective groups are shown in FIG. 9. Efficacy evaluation was carried out based on relative tumor proliferation rates and relative tumor growth inhibition rates, and the results of efficacy analysis are summarized in Table 18. Body weight changes of the treatment and control groups after administration were recorded to investigate safety of the groups in the HuPrime® lung cancer LU6429 subcutaneous model. Body weight change rates of the mice on Day 25 are shown in Table 19, and curves showing body weights of the treatment groups over time are plotted in FIG. 10."}, "[3]": {"assay": "Safety (body weight) in Capan-1 CDX model (3.1)", "format": "in vivo", "parameters": "Body weight: unit: g", "conditions": "for Body weight / Body weight change percentage: olaparib 100 mg/kg p.o. QD×30, TH-302 75 mg/kg i.v. QW×3", "protocol": "Each nude female BALB/c mouse was subcutaneously inoculated at a lower portion of the right back with 5×10^5 Capan-1 cells resuspended in a 1:1 mixture of PBS and matrigel (0.1 ml per mouse). A total of 64 female mice were inoculated. The inoculation was conducted on Jun. […] The test drug olaparib group was orally and intragastrically administered, once daily for a total of 30 days. Efficacy was evaluated based on relative tumor growth inhibition (TGI) rates (%), and safety was evaluated based on body weight changes and deaths of the animals."}}, "note": "“Also recorded” adds a separate entry of the source.", "data": [{"compound": "O=C(c1cc(Cc2n[nH]c(=O)c3ccccc23)ccc1F)N1CCN(C(=O)C2CC2)CC1", "note": "[olaparib]", "values": [{"measurement": "Average Body Weight g (x ± S)", "setting": "[1]; Day 0", "result": "21.8 ± 0.5", "unit": "g"}, {"measurement": "Average Body Weight g (x ± S)", "setting": "[1]; Day 35", "result": "20.9 ± 0.7", "unit": "g"}, {"measurement": "Body Weight Change Rate (%)", "setting": "[1]; Day 35", "result": "−4.24% ± 2.93%"}, {"measurement": "Average Body Weight g (x ± S)", "setting": "[2]; Day 0", "result": "20.8 ± 0.2", "unit": "g"}, {"measurement": "Average Body Weight g (x ± S)", "setting": "[2]; Day 25", "result": "24.0 ± 0.4", "unit": "g"}, {"measurement": "Body Weight Change Rate (%)", "setting": "[2]; Day 25", "result": "15.20% ± 2.31%"}, {"measurement": "Body weight", "setting": "[3]; Day 5", "result": 22.8}, {"measurement": "Body weight change percentage", "setting": "[3]; Day 5", "result": 0.00, "unit": "%"}, {"measurement": "Body weight", "setting": "[3]; Day 6", "result": 22.5}, {"measurement": "Body weight change percentage", "setting": "[3]; Day 6", "result": "−1.18", "unit": "%"}, {"measurement": "Body weight", "setting": "[3]; Day 7", "result": 22.6}, {"measurement": "Body weight change percentage", "setting": "[3]; Day 7", "result": "−0.91", "unit": "%"}, {"measurement": "Body weight", "setting": "[3]; Day 8", "result": 22.7}, {"measurement": "Body weight change percentage", "setting": "[3]; Day 8", "result": "−0.35", "unit": "%"}, {"measurement": "Body weight", "setting": "[3]; Day 9", "result": 22.6}, {"measurement": "Body weight change percentage", "setting": "[3]; Day 9", "result": "−0.82", "unit": "%"}, {"measurement": "Body weight", "setting": "[3]; Day 10", "result": 23.0}, {"measurement": "Body weight change percentage", "setting": "[3]; Day 10", "result": 1.04, "unit": "%"}, {"measurement": "Body weight", "setting": "[3]; Day 11", "result": 22.7}, {"measurement": "Body weight change percentage", "setting": "[3]; Day 11", "result": "−0.25", "unit": "%"}, {"measurement": "Body weight", "setting": "[3]; Day 12", "result": 22.7}, {"measurement": "Body weight change percentage", "setting": "[3]; Day 12", "result": "−0.61", "unit": "%"}, {"measurement": "Body weight", "setting": "[3]; Day 13", "result": 23.3}, {"measurement": "Body weight change percentage", "setting": "[3]; Day 13", "result": 2.18, "unit": "%"}, {"measurement": "Body weight", "setting": "[3]; Day 14", "result": 23.2}, {"measurement": "Body weight change percentage", "setting": "[3]; Day 14", "result": 1.87, "unit": "%"}, {"measurement": "Body weight", "setting": "[3]; Day 15", "result": 23.2}, {"measurement": "Body weight change percentage", "setting": "[3]; Day 15", "result": 1.86, "unit": "%"}, {"measurement": "Body weight", "setting": "[3]; Day 16", "result": 23.3}, {"measurement": "Body weight change percentage", "setting": "[3]; Day 16", "result": 2.16, "unit": "%"}, {"measurement": "Body weight", "setting": "[3]; Day 17", "result": "23."}, {"measurement": "Body weight change percentage", "setting": "[3]; Day 17", "result": 1.43, "unit": "%"}, {"measurement": "Body weight", "setting": "[3]; Day 18", "result": 23.6}, {"measurement": "Body weight change percentage", "setting": "[3]; Day 18", "result": 3.45, "unit": "%"}, {"measurement": "Body weight", "setting": "[3]; Day 19", "result": 23.5}, {"measurement": "Body weight change percentage", "setting": "[3]; Day 19", "result": 3.00, "unit": "%"}, {"measurement": "Body weight", "setting": "[3]; Day 20", "result": 23.3}, {"measurement": "Body weight change percentage", "setting": "[3]; Day 20", "result": 2.19, "unit": "%"}, {"measurement": "Body weight", "setting": "[3]; Day 21", "result": 23.4}, {"measurement": "Body weight change percentage", "setting": "[3]; Day 21", "result": 2.68, "unit": "%"}, {"measurement": "Body weight", "setting": "[3]; Day 22", "result": 23.6}, {"measurement": "Body weight change percentage", "setting": "[3]; Day 22", "result": 3.51, "unit": "%"}, {"measurement": "Body weight", "setting": "[3]; Day 23", "result": 23.8}, {"measurement": "Body weight change percentage", "setting": "[3]; Day 23", "result": 4.38, "unit": "%"}, {"measurement": "Body weight", "setting": "[3]; Day 24", "result": 23.8}, {"measurement": "Body weight change percentage", "setting": "[3]; Day 24", "result": 4.47, "unit": "%"}, {"measurement": "Body weight", "setting": "[3]; Day 25", "result": 23.7}, {"measurement": "Body weight change percentage", "setting": "[3]; Day 25", "result": 3.80, "unit": "%"}, {"measurement": "Body weight", "setting": "[3]; Day 26", "result": 23.9}, {"measurement": "Body weight change percentage", "setting": "[3]; Day 26", "result": 4.97, "unit": "%"}, {"measurement": "Body weight", "setting": "[3]; Day 27", "result": 24.0}, {"measurement": "Body weight change percentage", "setting": "[3]; Day 27", "result": 5.39, "unit": "%"}, {"measurement": "Body weight", "setting": "[3]; Day 28", "result": 24.0}, {"measurement": "Body weight change percentage", "setting": "[3]; Day 28", "result": 5.29, "unit": "%"}, {"measurement": "Body weight", "setting": "[3]; Day 29", "result": 23.7}, {"measurement": "Body weight change percentage", "setting": "[3]; Day 29", "result": 4.05, "unit": "%"}, {"measurement": "Body weight", "setting": "[3]; Day 30", "result": 23.9}, {"measurement": "Body weight change percentage", "setting": "[3]; Day 30", "result": 4.85, "unit": "%"}, {"measurement": "Body weight", "setting": "[3]; Day 31", "result": 24.5}, {"measurement": "Body weight change percentage", "setting": "[3]; Day 31", "result": 7.24, "unit": "%"}, {"measurement": "Body weight", "setting": "[3]; Day 32", "result": 24.3}, {"measurement": "Body weight change percentage", "setting": "[3]; Day 32", "result": 6.56, "unit": "%"}, {"measurement": "Body weight", "setting": "[3]; Day 33", "result": 24.4}, {"measurement": "Body weight change percentage", "setting": "[3]; Day 33", "result": 6.92, "unit": "%"}, {"measurement": "Body weight", "setting": "[3]; Day 34", "result": 24.3}, {"measurement": "Body weight change percentage", "setting": "[3]; Day 34", "result": 6.71, "unit": "%"}, {"measurement": "Body weight", "setting": "[3]; Day 35", "result": 24.5}, {"measurement": "Body weight change percentage", "setting": "[3]; Day 35", "result": 7.26, "unit": "%"}, {"measurement": "Body weight loss / tolerance", "setting": "[3]; olaparib 100 mg/kg, TH-302 75 mg/kg, combination 100 + 75 mg/kg", "result": "No significant body weight losses; also recorded: good tolerance"}]}]}
